Experimental data as given in patent EP0080822A1, “Anti-hypertensive prolinol-based peptides” (BEECHAM GROUP PLC, priority 1981, dated 1983).
pIC50: −log10 of the molar value.

Tests used:
[1] = target: T1, angiotensin converting enzyme (Rattus norvegicus, UniProt P47820); assay: In vivo test for inhibition of angiotensin converting enzyme: pressor responses to angiotensin I and II in anaesthetised rats
T1 construct: were each tested in anaesthetised rats; from tissue; host or cells: whole animal (anaesthetised rat)
T1 sequence (P47820 36-1313): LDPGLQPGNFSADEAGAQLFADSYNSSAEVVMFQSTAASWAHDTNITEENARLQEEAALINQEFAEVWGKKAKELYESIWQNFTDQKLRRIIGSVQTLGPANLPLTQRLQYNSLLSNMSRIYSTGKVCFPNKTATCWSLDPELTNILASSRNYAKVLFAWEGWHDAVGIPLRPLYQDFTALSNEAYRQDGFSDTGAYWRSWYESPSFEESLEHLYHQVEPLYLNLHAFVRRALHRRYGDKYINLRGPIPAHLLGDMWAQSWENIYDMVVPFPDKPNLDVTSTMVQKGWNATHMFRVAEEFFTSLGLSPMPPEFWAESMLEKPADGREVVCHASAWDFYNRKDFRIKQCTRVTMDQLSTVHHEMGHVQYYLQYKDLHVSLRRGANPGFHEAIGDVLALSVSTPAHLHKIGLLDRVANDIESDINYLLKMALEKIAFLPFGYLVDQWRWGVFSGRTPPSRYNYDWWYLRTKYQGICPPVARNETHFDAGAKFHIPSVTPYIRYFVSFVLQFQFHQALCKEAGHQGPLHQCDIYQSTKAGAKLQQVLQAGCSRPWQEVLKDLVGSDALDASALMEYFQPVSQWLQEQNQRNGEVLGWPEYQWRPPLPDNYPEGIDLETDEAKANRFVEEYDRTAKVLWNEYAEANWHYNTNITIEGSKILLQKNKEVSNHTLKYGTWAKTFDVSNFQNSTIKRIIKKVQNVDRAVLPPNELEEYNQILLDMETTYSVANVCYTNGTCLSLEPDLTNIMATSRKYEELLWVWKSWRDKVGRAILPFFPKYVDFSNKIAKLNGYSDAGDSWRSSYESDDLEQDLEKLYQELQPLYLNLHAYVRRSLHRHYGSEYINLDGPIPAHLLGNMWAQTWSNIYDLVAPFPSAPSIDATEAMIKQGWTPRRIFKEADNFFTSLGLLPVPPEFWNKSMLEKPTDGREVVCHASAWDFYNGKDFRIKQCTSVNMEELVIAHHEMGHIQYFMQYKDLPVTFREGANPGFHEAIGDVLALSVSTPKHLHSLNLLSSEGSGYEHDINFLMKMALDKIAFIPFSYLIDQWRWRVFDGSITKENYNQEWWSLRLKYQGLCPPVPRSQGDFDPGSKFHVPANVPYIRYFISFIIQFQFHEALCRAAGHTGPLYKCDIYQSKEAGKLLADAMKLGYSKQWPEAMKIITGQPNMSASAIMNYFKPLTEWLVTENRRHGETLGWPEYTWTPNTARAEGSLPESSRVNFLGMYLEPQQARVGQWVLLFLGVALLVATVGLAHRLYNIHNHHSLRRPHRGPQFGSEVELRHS
Procedure: 2. In vivo test for inhibition of angiotensin converting enzyme.
The compounds of examples 1,2,4 & 5 were each tested in anaesthetised rats for their ability to reduce the pressor responses to angiotensin I, but not those to angiotensin II. The dose of angiotensin I was 300 n.g/kg (i.v) and the dose of angiotensin II was 100 ng/kg (i.v).
The results given are the mean of those obtained from the given number of rats.
'I' is the increase in diastolic blood pressure (mm Hg) to angiotensin I (control reponse).
'%R' is the percentage reduction in control angiotensin I response after the intervals (min) from dosage.

[2] = target: T2, rat lung angiotensin converting enzyme preparation (Rattus norvegicus, UniProt P47820); assay: In vitro test for inhibition of angiotensin converting enzyme; type: biochemical; conditions: mean of 3 experiments; read-out: 50% inhibitior. (IC50) of rat lung angiotensin converting enzyme preparation
T2 construct: rat lung angiotensin converting enzyme preparation; from tissue; host or cells: rat lung
T2 sequence (P47820 36-1313): T1 sequence (P47820 36-1313)
From the text: 1. In vitro test for inhibition of angiotensin converting enzyme

[3] = test system: Spontaneously hypertensive rats; assay: Antihypertensive activity in spontaneously hypertensive rats (tail cuff method); type: in vivo
Procedure: 3. Antihypertensive Activity
Each determination of blood pressure was the mean of at least 6 readings. Spontaneously hypertensive rats (ages 12-18 weeks) with systolic blood pressures 170 mmH:g were considered hypertensive.
The initial blood pressure and heart rats were determined and recorded together with the % changes occuring at intervals thereafter: […]

[4] = 0.03 mg/kg i.v, 5 min from dosage
[5] = 0.03 mg/kg i.v, 10 min from dosage
[6] = 0.03 mg/kg i.v, 15 min from dosage
[7] = 0.10 mg/kg i.v, 5 min from dosage
[8] = 0.10 mg/kg i.v, 10 min from dosage
[9] = 0.10 mg/kg i.v, 15 min from dosage
[10] = 0.10 mg/kg i.v, 25 min from dosage
[11] = 0.10 mg/kg i.v, 30 min from dosage
[12] = 0.10 mg/kg i.v, 40 min from dosage
[13] = 0.10 mg/kg i.v, 45 min from dosage
[14] = 0.10 mg/kg i.v, 50 min from dosage
[15] = 0.30 mg/kg i.v, 5 min from dosage
[16] = 0.30 mg/kg i.v, 10 min from dosage
[17] = 0.30 mg/kg i.v, 15 min from dosage
[18] = 0.30 mg/kg i.v, 25 min from dosage
[19] = 0.30 mg/kg i.v, 30 min from dosage
[20] = 0.30 mg/kg i.v, 40 min from dosage
[21] = 0.30 mg/kg i.v, 45 min from dosage
[22] = 0.30 mg/kg i.v, 50 min from dosage
[23] = 10 mg/kg p.o., 1 hour post dose
[24] = 10 mg/kg p.o., 4 hours post dose
[25] = 10 mg/kg p.o., 6 hours post dose
[26] = 10 mg/kg p.o., 24 hours post dose
[27] = 30 mg/kg p.o., 1 hour post dose
[28] = 30 mg/kg p.o., 2 hours post dose
[29] = 30 mg/kg p.o., 4 hours post dose
[30] = 30 mg/kg p.o., 6 hours post dose
[31] = 30 mg/kg p.o., 24 hours post dose

Substance | %R percentage reduction in control angiotensin I response [1, 4] [%] | %R percentage reduction in control angiotensin I response [1, 5] [%] | %R percentage reduction in control angiotensin I response [1, 6] [%] | %R percentage reduction in control angiotensin I response [1, 7] [%] | %R percentage reduction in control angiotensin I response [1, 8] [%] | %R percentage reduction in control angiotensin I response [1, 9] [%] | %R percentage reduction in control angiotensin I response [1, 10] [%] | %R percentage reduction in control angiotensin I response [1, 11] [%] | %R percentage reduction in control angiotensin I response [1, 12] [%] | %R percentage reduction in control angiotensin I response [1, 13] [%] | %R percentage reduction in control angiotensin I response [1, 14] [%] | %R percentage reduction in control angiotensin I response [1, 15] [%] | %R percentage reduction in control angiotensin I response [1, 16] [%] | %R percentage reduction in control angiotensin I response [1, 17] [%] | %R percentage reduction in control angiotensin I response [1, 18] [%] | %R percentage reduction in control angiotensin I response [1, 19] [%] | %R percentage reduction in control angiotensin I response [1, 20] [%] | %R percentage reduction in control angiotensin I response [1, 21] [%] | %R percentage reduction in control angiotensin I response [1, 22] [%] | further results
N-(1-Carboxypropyl)-(S)-alanyl-4α-benzyloxy-(S)-proline [Example 1] | 39 | 29 | 6 | 60 | 64 | 57 | 41 | 38 | 36 | 32 | 24 | 86 | 80 | 77 | 76 | 77 | 73 | 72 | 74 | pIC50 [2]: 8.48
N-(1-carbethoxy-3-phenylpropyl)-(S)-alanyl-4α-benzyloxy-(S)-proline [Example 2] | 23 | 25 | 19 | 67 | 66 | 61 | 53 | 42 | 47 | 39 | 29 | 82 | 81 | 80 | 69 | 67 | 69 | 65 | 60 | % change in heart rate [3, 23]: -7 ± 3%; % change in systolic blood pressure [3, 23]: -5± 3%; % change in systolic blood pressure ([3]; 10 mg/kg p.o., 2 hours post dose): -10± 3%; % change in heart rate [3, 24]: -5 ± 4%; % change in systolic blood pressure [3, 24]: -22± 3%; % change in heart rate [3, 25]: 1 ± 4%; % change in systolic blood pressure [3, 25]: -22± 4%; % change in heart rate [3, 26]: -4 ± 3%; % change in systolic blood pressure [3, 26]: -7± 4%; %R percentage reduction in control angiotensin I response ([1]; 0.03 mg/kg i.v, 25 min from dosage): 12%
N-[4-(2,3-dihydro-2-benzofuranyl)-l-(ethoxycar-α bonyl)-butyl]-(S)-alanyl-4αbenzyloxy-(S)-proline [Example 5] | – | – | – | 61 | 58 | 52 | 47 | 44 | 39 | – | 18 | – | – | – | – | – | – | – | – | % change in heart rate [3, 27]: -2 ± 2%; % change in systolic blood pressure [3, 27]: -10± 3%; % change in heart rate [3, 28]: 0 ± 4%; % change in systolic blood pressure [3, 28]: -7± 2%; % change in heart rate [3, 29]: +5 ± 3%; % change in systolic blood pressure [3, 29]: -23± 1%; % change in heart rate [3, 30]: 0 ± 3%; % change in systolic blood pressure [3, 30]: -17± 1%; % change in heart rate [3, 31]: +9 ± 5%; % change in systolic blood pressure [3, 31]: +1± 3%
N-[2-(2,3-dihydro-2-benzofuranyl)-l-(ethoxycarbonyl) -ethyl)-(S)-alanyl -4α-benzyloxy-(S)-nroline [Example 4] | – | – | – | 34 | 29 | 25 | 15 | 14 | 16 | 14 | – | – | – | – | – | – | – | – | – | –
